Experimental data from ChEMBL document CHEMBL1201862, “PubChem BioAssay data set” (2004).
Active and inactive are the calls of the source.

Experiments:
[1] = inhibitors of SNCA 5'UTR-driven reporter translation, confirmation, H4 neuroglioma cells, luminescence (AID 1988); assay type: functional, cell-based
[2] = Luminescence Cell-Based Dose Response HTS to Identify Inhibitors of 5'UTR Stem-Loop Driven Prion Protein mRNA Translation in H4 Neuroglioblastoma Cells. [Related pubchem assays: 1827 (Project Summary), 1813 (Primary HTS)]; assay type: functional
[3] = inhibitors of firefly luciferase expression or activity, dose response, H4 neuroglioma cells, luminescence (AID 1990); assay type: functional, cell-based
[4] = HIV-1 Env-mediated cell fusion inhibitors, dose response, CCR5-tropic Env (AID 2279); assay type: functional
[5] = target: Lysosomal acid glucosylceramidase (Homo sapiens, UniProt P04062); assay: Dose response cell-based high throughput screening assay to identify enhancers of beta-glucosidase activity. [Related pubchem assays: 784 ]; assay type: functional
[6] = inhibitors of SNCA 5'UTR-driven translation, confirmation, luminescence, H4 neuroglioblastoma cells, dose confirmation (AID 2454); assay type: functional, cell-based;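 also: H4 neuroglioblastoma cells carrying an alpha-synuclein 5'UTR luciferase reporter; potency for inhibition of the luciferase signal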
cells = assay type: functional, cell-based
[7] = luciferase reporter signal reduction – luminescence, H4-C neuroglioblastoma cells, dose response (AID 2458); assay type: functional, cell-based;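 also: H4 neuroglioblastoma cells stably carrying a luciferase reporter gene fusion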
[8] = target: Neuropeptide Y receptor type 1 (Homo sapiens, UniProt P25929); assay: Fluorescence-based counterscreen for agonists of NPY-Y2: cell-based high-throughput dose response assay for agonists of NPY-Y1.; assay type: functional
[9] = P. falciparum late gametocyte killing, dose response, luminescence (AID 1117278); assay type: functional, cell-based;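 also: gametocytes exposed to compound for 24 hours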
HEK293 [10] = assay: Fluorescence-based counterscreen for potentiators or agonists of NPY-Y2: cell-based high-throughput dose response assay to identify inhibitors of cyclic nucleotide gated ion channel (CNGC) activity. In this assay, the parental HEK293 cell line transfected with a cyclic-nucleotide gated ion channel (CNGC)-based cAMP sensor is used to measure inhibition of isoproterenol-induced CNGC activity by test compound.; assay type: functional; conditions: Homo sapiens
[11] = Jurkat T cell cytotoxicity, dose response, cytotoxicity control for P. falciparum gametocyte viability project, luminescence (AID 1117277); assay type: functional, cell-based;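 also: potency reflects loss of cellular ATP meaning fewer viable cells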
[12] = target: Neuropeptide Y receptor type 2 (Homo sapiens, UniProt P49146); assay: Fluorescence-based cell-based high-throughput dose response assay for agonists of NPY-Y2. [Related pubchem assays: 1703 (Screening assay (CNGC inhibitors).), 1359 (Screening assay (NPY-Y2 potentiators or agonists).), 1304 (Screening assay (NPY-Y1 potentiators or agonists).), 1710 (Screening assay (NPY-Y2 agonists).), 1791 (Summary AID.)]; assay type: functional
[13] = target: Serine/threonine-protein phosphatase (Homo sapiens, UniProt Q9BPW0); assay: Counterscreen for inhibitors of PP1: fluorescence-based biochemical high throughput dose response assay to identify inhibitors of Protein Phosphatase 5 (PP5). [Related pubchem assays: 2034 (Summary (PP5 inhibitors)), 1987 (PP5 inhibitors in singlate), 2235 (PP1 inhibitors in singlate)]
[14] = target: Serine/threonine-protein phosphatase PP1-alpha catalytic subunit (Homo sapiens, UniProt P62136); assay: PP1 phosphatase inhibitors, dose response, biochemical, fluorescence (AID 2403);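 also: phosphatase turnover of OMFP into fluorescent 3-O-methylfluorescein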
[15] = system: Streptococcus sp. 'group A'; assay: growth inhibition of control SK(-) GAS strain, dose response, counter-screen for streptokinase expression inhibitor project, luminescence, kanamycin, BacTiterGlo, confirmation (AID 1900); assay type: functional, organism-based
[16] = Artemis endonuclease inhibitor potency, dose response, biochemical, fluorescence intensity (AID 720701); assay type: functional;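 also: Artemis endonuclease enzyme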
[17] = cytotoxicity in MIN6 insulinoma cells, dose response, cytotoxicity control, cell-based, mouse insulinoma (AID 2122); assay type: functional;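 also: confirmatory high-throughput counterscreen run to flag cytotoxic compounds; mouse MIN-6 beta cells carrying an insulin promoter eGFP reporter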
Streptococcus = assay: Group A Streptococcus viability loss, dose response, counter-screen for streptokinase expression inhibitor project, luminescence, BacTiterGlo (AID 1915); assay type: functional, organism-based;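 also: potency for reduction of bacterial viability or growth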
INS1 = assay: beta cell apoptosis inhibitors, cytokine rescue, dose response, luminescence, retest (AID 449756); assay type: functional, cell-based; conditions: Rattus norvegicus;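 also: cell death triggered by IL-1 beta plus TNF-alpha plus IFN-gamma mixture; protective hits raise ATP signal compared with cytokine alone wells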
[18] = insulin promoter down-regulators in MIN6 cells, imaging, high-content screening, mouse beta cells (AID 1628); assay type: functional
Cytochrome P450 2C9 = Cytochrome P450 2C9 (Homo sapiens, UniProt P11712); conditions: Potency
[19] = target: Mothers against decapentaplegic homolog 3 (Homo sapiens, UniProt P84022); assay: Smad3 binding inhibitors, lysate ELISA, dose response, cell lysate, secondary confirmation, chemiluminescent ELISA, HEK293 lysate (AID 1058); assay type: functional
Cytochrome P450 2D6 = Cytochrome P450 2D6 (Homo sapiens, UniProt P10635); assay: qHTS Assay for Inhibitors and Substrates of Cytochrome P450 2D6. [Related pubchem assays: 410 ]; assay type: ADME; conditions: read-out: Potency
[20] = target: T1, Probable nicotinate-nucleotide adenylyltransferase (Staphylococcus aureus (strain N315), UniProt P65502); assay type: functional, Staphylococcus aureus subsp. aureus N315; conditions: read-out: IC50_Mean;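 as to IC50 Mean: confirmatory dose-response retesting of NadD inhibitor hits first found in an ultra-high-throughput screen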
[21] = inhibitors of Bluetongue virus cytopathic effect, confirmation, arbovirus, BSR cells (AID 1250); assay type: functional;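 also: protection from viral cytopathic effect measured as cell viability by ATP luminescence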
Cysteine protease ATG4B = target: T2, Cysteine protease ATG4B (Homo sapiens, UniProt Q9Y4P1); assay type: functional;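 also: Fluorescence-based dose-response confirmation assay measuring inhibition of ATG4B activity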
T2 sequence (Q9Y4P1 whole entry): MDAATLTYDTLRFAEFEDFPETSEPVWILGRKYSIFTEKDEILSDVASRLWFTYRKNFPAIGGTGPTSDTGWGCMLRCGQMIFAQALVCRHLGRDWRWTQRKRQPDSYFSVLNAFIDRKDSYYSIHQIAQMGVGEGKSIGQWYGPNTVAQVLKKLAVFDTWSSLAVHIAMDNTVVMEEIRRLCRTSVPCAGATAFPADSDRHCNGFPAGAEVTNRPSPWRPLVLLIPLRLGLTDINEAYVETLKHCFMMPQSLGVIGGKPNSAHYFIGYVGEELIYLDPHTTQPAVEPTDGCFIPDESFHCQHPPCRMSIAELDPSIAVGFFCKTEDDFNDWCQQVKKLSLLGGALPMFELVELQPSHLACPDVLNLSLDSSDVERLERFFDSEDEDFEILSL

[22] = target: T1, Probable nicotinate-nucleotide adenylyltransferase; assay type: functional, Staphylococcus aureus subsp. aureus N315
Phospholipase A2 = Phospholipase A2 (Homo sapiens, UniProt P04054); assay type: functional;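 also: confirmatory dose-response counterscreen on phospholipase A2, testing hits that came from an ultra-high-throughput screen for ATG4B inhibitors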
[23] = target: Ras and Rab interactor 1/Tyrosine-protein kinase ABL1 (Homo sapiens, UniProt P00519+Q13671); assay type: functional;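 also: biochemical TR-FRET dose-response test measuring inhibition of binding between Rin1 and Abl proteins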
HEK293 [24] = assay: optical interference in Abeta FP readout, dose response, artefact control for IDE activator project, biochemical, fluorescence polarization (AID 588442); assay type: functional, cell-based; conditions: Homo sapiens
Insulin-degrading enzyme [25] = target: T3, Insulin-degrading enzyme (Homo sapiens, UniProt P14735); assay: activators of recombinant IDE enzyme, dose response, counter-screen for IDE activator project, biochemical, fluorescence polarization (AID 588681)
T3 sequence (P14735 whole entry): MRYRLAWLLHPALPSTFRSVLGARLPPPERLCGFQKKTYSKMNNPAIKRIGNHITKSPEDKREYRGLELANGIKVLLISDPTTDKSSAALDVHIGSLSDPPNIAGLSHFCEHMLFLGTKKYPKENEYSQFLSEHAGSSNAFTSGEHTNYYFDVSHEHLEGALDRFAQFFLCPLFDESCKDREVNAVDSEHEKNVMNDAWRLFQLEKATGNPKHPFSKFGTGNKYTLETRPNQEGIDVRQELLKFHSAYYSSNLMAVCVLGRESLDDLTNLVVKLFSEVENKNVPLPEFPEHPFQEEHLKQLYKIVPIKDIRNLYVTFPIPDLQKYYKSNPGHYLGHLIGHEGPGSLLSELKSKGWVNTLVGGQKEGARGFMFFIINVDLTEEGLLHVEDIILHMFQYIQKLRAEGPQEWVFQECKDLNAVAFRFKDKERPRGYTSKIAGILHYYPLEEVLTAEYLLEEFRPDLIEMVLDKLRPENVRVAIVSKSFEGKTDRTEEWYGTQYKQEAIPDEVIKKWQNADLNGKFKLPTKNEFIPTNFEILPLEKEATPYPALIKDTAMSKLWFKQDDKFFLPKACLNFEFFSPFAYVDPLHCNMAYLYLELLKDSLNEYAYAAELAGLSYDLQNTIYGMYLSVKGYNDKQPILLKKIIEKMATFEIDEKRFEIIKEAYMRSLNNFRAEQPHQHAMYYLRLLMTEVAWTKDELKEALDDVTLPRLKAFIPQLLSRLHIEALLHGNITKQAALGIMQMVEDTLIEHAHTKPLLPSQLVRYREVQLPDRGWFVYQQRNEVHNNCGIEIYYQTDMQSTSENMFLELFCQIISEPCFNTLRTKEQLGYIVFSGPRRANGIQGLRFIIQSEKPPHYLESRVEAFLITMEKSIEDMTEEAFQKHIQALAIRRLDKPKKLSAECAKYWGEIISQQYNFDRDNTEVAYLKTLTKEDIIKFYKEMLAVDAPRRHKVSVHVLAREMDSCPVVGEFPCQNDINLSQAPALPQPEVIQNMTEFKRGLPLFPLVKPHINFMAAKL

[26] = target: Peroxisome proliferator-activated receptor gamma/Nuclear receptor corepressor 2 (Homo sapiens, UniProt P37231+Q9Y618); assay type: functional
[27] = target: Photoreceptor-specific nuclear receptor (Homo sapiens, UniProt Q9Y5X4); assay type: functional;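 also: potency for compounds that break the NR2E3 corepressor complex and count as activators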
Nonstructural protein 1 = Nonstructural protein 1 (Influenza A virus, UniProt Q194T2); assay type: functional, Influenza A virus (A/California/07/2009(H1N1))
HEK293 [28] = assay: HEK cell cytotoxicity by LDH release, dose response, cytotoxicity control for IDE activator project, fluorescence, HEK cells (AID 588440); assay type: functional, cell-based; conditions: Homo sapiens;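 also: cytotoxicity by LDH release measuring loss of membrane integrity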
Insulin-degrading enzyme [29] = target: T3, Insulin-degrading enzyme; assay: activators of endogenous IDE in HEK cells, dose response, cell-based, fluorescence polarization (AID 588439); assay type: functional
[30] = target: T4, Eukaryotic translation initiation factor 2-alpha kinase 3 (Homo sapiens, UniProt Q9NZJ5); assay: Dose response cell-based high-throughput screening assay to measure PERK inhibition. [Related pubchem assays: 1416 ]; assay type: functional
[31] = target: T4, Eukaryotic translation initiation factor 2-alpha kinase 3; assay: Counterscreen assay for PERK inhibitors: Dose response cell-based high throughput screening assay to measure inhibition of PERK at 6 hours. [Related pubchem assays: 1522, 1416 ]; assay type: functional
Oxytocin receptor = Oxytocin receptor (Homo sapiens, UniProt P30559); assay: Fluorescence-based cell-based high throughput dose response assay for agonists of the Oxytocin Receptor (OXTR). [Related pubchem assays: 2435 (Primary screen (OXTR agonists in singlicate)), 434991 (Counterscreen (V1R agonists in triplicate)), 2482 (Summary (OXTR agonists)), 434963 (Confirmation screen (OXTR agonists in triplicate))]; assay type: functional
Vasopressin V1a receptor = Vasopressin V1a receptor (Homo sapiens, UniProt P37288); assay: Counterscreen for Oxytocin Receptor (OXTR) agonists: Fluorescence-based cell-based high throughput dose response assay to identify agonists of the vasopressin 1 receptor (V1R). [Related pubchem assays: 2435 (Primary screen (OXTR agonists in singlicate)), 434991 (Counterscreen (V1R agonists in triplicate)), 2482 (Summary (OXTR agonists)) …; assay type: functional
[32] = Luminescence Cell-Based Dose Retest to Confirm Inhibitors of Cancer Stem Cells. [Related pubchem assays (depositor defined):AID2717, AID2721]; assay type: functional; conditions: Homo sapiens

T1 sequence (P65502 whole entry): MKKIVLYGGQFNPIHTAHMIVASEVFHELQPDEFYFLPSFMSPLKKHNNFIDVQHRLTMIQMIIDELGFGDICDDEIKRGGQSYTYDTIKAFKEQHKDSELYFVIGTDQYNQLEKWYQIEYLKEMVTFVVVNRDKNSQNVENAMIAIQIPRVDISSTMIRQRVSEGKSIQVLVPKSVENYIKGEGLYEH
T4 sequence (Q9NZJ5 whole entry): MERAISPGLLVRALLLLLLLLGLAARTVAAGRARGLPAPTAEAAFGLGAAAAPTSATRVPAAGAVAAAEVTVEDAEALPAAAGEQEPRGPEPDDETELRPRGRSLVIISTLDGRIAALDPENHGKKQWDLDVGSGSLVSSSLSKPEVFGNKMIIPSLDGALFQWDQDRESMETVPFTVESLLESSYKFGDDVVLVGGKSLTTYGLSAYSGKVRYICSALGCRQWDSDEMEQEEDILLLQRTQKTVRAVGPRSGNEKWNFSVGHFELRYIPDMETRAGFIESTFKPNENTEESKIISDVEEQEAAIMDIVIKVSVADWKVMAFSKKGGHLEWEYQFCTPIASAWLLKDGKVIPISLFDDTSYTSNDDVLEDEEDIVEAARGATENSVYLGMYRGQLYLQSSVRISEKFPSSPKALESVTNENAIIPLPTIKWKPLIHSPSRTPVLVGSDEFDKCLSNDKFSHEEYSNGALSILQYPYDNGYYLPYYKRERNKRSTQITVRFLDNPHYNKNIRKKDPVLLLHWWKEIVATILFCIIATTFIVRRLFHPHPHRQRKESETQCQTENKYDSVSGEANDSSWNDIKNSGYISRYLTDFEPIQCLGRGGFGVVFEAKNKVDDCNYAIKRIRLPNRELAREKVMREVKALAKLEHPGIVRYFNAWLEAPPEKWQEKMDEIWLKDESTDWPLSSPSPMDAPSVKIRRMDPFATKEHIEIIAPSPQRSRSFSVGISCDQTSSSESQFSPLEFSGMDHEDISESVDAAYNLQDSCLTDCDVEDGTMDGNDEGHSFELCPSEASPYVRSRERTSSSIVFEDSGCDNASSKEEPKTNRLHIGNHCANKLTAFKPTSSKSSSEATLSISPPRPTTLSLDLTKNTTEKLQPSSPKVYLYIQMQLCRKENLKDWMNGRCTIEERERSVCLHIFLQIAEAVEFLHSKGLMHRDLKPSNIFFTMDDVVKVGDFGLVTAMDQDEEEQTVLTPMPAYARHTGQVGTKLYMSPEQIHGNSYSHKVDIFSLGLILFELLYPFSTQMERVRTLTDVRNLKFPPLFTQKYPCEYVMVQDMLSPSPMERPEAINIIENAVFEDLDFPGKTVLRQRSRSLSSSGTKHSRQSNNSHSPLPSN
Neuropeptide Y receptor type 1, sequence (P25929 whole entry): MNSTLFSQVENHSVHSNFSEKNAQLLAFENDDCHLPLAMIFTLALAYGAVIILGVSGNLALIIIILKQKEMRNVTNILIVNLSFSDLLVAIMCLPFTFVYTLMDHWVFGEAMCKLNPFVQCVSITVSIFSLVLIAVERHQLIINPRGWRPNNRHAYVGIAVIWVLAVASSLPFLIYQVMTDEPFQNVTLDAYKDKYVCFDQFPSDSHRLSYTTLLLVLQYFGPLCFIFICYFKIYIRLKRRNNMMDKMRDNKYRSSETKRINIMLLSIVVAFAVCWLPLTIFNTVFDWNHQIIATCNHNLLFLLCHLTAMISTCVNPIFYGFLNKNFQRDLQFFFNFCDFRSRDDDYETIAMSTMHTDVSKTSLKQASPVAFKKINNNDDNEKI
Mothers against decapentaplegic homolog 3, sequence (P84022 whole entry): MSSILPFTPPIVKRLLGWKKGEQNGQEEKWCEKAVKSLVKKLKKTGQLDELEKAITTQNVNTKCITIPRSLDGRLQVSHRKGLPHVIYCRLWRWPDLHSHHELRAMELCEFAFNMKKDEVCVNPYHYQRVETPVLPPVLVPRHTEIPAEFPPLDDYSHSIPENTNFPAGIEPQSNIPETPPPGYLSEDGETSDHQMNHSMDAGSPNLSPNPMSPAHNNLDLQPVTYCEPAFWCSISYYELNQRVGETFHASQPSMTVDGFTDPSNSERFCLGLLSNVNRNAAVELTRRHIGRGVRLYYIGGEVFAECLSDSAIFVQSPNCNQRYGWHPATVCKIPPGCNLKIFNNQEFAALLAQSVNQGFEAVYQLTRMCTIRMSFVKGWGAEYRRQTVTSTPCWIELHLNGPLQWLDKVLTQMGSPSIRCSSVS
Cytochrome P450 2D6, sequence (P10635 whole entry): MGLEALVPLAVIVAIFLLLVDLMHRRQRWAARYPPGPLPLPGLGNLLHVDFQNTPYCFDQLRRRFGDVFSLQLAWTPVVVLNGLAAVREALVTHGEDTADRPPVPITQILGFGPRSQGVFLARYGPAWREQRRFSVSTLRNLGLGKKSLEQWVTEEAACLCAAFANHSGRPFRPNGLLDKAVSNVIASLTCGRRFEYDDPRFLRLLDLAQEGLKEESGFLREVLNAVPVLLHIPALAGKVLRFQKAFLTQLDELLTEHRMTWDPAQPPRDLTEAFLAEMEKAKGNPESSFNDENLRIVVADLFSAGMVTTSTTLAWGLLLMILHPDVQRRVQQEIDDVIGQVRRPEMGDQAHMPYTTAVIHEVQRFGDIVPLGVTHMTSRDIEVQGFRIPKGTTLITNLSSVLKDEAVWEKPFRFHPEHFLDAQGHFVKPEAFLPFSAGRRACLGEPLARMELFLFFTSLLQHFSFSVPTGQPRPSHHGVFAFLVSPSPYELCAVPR
Vasopressin V1a receptor, sequence (P37288 whole entry): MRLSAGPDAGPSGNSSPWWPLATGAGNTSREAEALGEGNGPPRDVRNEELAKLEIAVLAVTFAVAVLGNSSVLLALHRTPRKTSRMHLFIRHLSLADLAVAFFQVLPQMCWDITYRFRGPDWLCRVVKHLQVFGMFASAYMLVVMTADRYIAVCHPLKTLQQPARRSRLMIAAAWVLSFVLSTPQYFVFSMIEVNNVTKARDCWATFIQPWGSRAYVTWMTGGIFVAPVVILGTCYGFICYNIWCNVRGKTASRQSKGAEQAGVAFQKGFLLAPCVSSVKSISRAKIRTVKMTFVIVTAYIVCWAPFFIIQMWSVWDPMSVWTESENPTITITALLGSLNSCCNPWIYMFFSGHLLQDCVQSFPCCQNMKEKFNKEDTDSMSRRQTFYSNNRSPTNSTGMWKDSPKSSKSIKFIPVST
Serine/threonine-protein phosphatase PP1-alpha catalytic subunit, sequence (P62136 whole entry): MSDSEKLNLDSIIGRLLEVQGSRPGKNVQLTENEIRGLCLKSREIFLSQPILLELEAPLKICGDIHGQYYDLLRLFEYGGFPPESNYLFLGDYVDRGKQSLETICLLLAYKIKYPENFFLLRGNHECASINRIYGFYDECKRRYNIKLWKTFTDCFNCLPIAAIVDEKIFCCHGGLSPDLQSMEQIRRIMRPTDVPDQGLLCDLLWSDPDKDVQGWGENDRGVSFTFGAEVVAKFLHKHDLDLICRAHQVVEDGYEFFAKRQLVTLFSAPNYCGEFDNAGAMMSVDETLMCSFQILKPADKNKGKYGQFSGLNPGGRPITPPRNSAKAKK
Phospholipase A2, sequence (P04054 whole entry): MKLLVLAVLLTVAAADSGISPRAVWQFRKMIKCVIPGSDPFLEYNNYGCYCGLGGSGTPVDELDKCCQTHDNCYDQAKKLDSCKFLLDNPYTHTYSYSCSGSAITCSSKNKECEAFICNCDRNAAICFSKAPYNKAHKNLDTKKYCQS
Oxytocin receptor, sequence (P30559 whole entry): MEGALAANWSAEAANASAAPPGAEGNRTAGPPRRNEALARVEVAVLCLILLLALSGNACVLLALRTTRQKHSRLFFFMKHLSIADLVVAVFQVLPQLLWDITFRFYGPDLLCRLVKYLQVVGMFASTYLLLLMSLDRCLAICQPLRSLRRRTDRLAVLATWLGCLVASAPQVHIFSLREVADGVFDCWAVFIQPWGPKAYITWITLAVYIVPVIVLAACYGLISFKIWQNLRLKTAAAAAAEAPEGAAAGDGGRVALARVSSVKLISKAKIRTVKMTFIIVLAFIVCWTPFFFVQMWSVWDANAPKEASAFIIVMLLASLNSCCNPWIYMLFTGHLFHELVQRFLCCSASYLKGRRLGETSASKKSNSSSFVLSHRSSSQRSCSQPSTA
Serine/threonine-protein phosphatase, sequence (Q9BPW0 whole entry): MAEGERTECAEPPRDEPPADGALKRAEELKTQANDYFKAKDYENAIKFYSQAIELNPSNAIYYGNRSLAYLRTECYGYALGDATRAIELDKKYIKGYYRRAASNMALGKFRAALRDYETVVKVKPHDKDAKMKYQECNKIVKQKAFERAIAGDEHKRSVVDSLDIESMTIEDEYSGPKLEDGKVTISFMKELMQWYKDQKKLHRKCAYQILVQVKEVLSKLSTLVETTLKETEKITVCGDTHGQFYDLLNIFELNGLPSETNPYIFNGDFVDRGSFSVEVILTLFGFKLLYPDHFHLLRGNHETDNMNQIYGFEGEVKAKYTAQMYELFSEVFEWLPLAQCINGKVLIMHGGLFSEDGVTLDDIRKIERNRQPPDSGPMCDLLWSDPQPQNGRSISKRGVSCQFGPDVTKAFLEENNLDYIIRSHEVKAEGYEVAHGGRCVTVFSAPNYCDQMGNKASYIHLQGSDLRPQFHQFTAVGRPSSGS
Neuropeptide Y receptor type 2, sequence (P49146 whole entry): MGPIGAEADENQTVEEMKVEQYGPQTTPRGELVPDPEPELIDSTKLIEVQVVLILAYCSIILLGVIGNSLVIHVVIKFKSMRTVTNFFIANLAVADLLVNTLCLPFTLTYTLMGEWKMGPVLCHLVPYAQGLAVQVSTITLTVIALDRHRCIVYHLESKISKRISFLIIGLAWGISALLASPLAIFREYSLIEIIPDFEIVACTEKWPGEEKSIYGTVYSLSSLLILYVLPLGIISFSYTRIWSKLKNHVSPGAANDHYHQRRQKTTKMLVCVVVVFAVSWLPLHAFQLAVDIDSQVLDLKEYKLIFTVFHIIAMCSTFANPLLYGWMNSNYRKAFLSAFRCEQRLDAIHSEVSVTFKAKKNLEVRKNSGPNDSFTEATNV

O=C(OCC1OC(n2ncc(=O)[nH]c2=O)C(OC(=O)c2ccccc2)C1OC(=O)c1ccccc1)c1ccccc1 (stereo not given)
EC50 [1]: > 120 µM (not active) | EC50 [2]: 17.7 µM (active) | EC50 [3]: 13.5 µM (active) | IC50 [4]: 12.2 µM (active)

CC(=O)N1CCc2cc(S(=O)(=O)CCC(=O)N3CCN(C(=O)c4ccco4)CC3)ccc21
EC50 [5]: > 50 µM (not active)

CC(C)(C)c1ccc(Oc2ccc(N)cn2)cc1 [LIMANTRAFIN]
EC50 [6]: 1.05 µM (active) | EC50 (cells): 2.75 µM (active) | EC50 [1]: < 0.1 µM (active) | EC50 [2]: 5.68 µM (active) | EC50 [7]: 0.803 µM (active) | EC50 [3]: < 0.1 µM (active)

O=C(O)c1ccc(OCc2cn3ccccc3n2)cc1
EC50 [8]: > 35.4 µM (not active) | IC50 [9]: > 109 µM (inactive) | EC50 (HEK293 [10]): > 35.4 µM (not active) | IC50 [11]: > 83.2 µM (inactive) | EC50 [12]: > 35.4 µM (not active)

c1ccc(N2CCN(c3nc(-c4ccccn4)nc4ccccc34)CC2)cc1
IC50 [13]: > 22.3 µM (not active) | IC50 [14]: 6.28 µM (active) | EC50 [15]: 0.433 µM (active) | IC50 [16]: 3.59 µM (active) | IC50 [17]: 1.67 µM (active) | EC50 (Streptococcus): 8.15 µM (active) | AC50 (INS1): 3.01 µM (active) | IC50 [18]: 2.4 µM (active)

CC(C)[C@@H](CC(=O)N[C@@H]1CCCC[C@H]1C(=O)N[C@H](CC(=O)N[C@@H](CCC(=O)O)CC(=O)O)Cc1ccccc1)NC(=O)C[C@H](CO)NC(=O)[C@@H]1CNCC[C@H]1N
AC50 (Cytochrome P450 2C9): 31.6 µM (inconclusive)

Oc1cc2c(cc1C(c1ccc(F)cc1)N1CCCC1)OCO2 (stereo not given)
IC50 [19]: 23.3 µM (not active)

CCN1C(C)=C(C(=O)OC)C(c2ccccc2)N2C(=O)[C@](O)(C(=O)OC)C(c3ccccc3)C(C(=O)c3ccccc3)=C12 (stereo not given in full)
AC50 (Cytochrome P450 2D6): 3.16 µM (inconclusive)

CCc1nnc(NS(=O)(=O)c2ccc(N/C=C\C(=O)c3ccc4ccccc4c3)cc2)s1
IC50 [20]: 29.7 µM (active) | IC50 [21]: 62.9 µM (active) | IC50 (Cysteine protease ATG4B): 11.1 µM (active) | IC50 [22]: 5.19 µM (active) | IC50 (Phospholipase A2): 9.13 µM (active)

C[C@@H]1NC(=O)N[C@@H]1CCCCCC(=O)O
IC50 [23]: 0.0101 µM (active) | EC50 (HEK293 [24]): 11.9 µM (inactive) | EC50 (Insulin-degrading enzyme [25]): 7.41 µM (active) | IC50 [26]: 1.38 µM (active) | IC50 [27]: 0.149 µM (active) | IC50 (Nonstructural protein 1): 1.57 µM (active) | IC50 (HEK293 [28]): > 89.2 µM (inactive) | EC50 (Insulin-degrading enzyme [29]): 7.8 µM (active)

O=C(O)CSc1ncnc2scc(-c3ccc(Br)cc3)c12
EC50 [30]: > 55.7 µM (not active) | EC50 [31]: > 55.7 µM (not active)

CC1(C)CC[C@@]2(C(=O)O)C(C1)C1=CCC3[C@@]4(C)CC[C@H](O)C(C)(C)C4CC[C@@]3(C)[C@]1(C)C[C@H]2O (stereo not given in full)
EC50 (Oxytocin receptor): 2.67 µM (active) | EC50 (Vasopressin V1a receptor): 2.33 µM (active) | AC50 [32]: 7.33 µM (active)
